The source of these data is patent publication US5684026A, “Aminocyclopentane derivative” (priority 1994, dated 1997).

One may read the IC50 as the concentration that inhibits the measured activity by half. A word on the pIC50: it is the IC50 on a negative log10 scale, so that one unit is a factor of ten. Read a high pIC50 as a low IC50. The term pKi denotes −log10 of the Ki, conventionally taken in molar units.

Common to all, as to type: biochemical
For assay [1], the target named is T1, α-Glucosidase (Baker's yeast, EC 3.2.1.20) (Saccharomyces cerevisiae, UniProt P53341).
T1 construct: purchased Sigma; host or cells: Baker's yeast
In words: α-Glucosidase enzyme inhibition assay (p-nitrophenyl α-D-glucopyranoside). To be noted: for IC50: pH 6.8, 37° C., 30 minutes, read-out: IC50 (M) α-Glucosidase (Baker's yeast); for inhibitory activity against α-glucosidase (in words): compared with deoxynojirimycin, summary of Tables 1 and 2. How it is done: (§1) By using a 96-well microplate, the absorbance (at 405 nm) of liberated p- or o-nitrophenol was measured with a microplate reader (MPR-4Ai, manufactured by Tosoh Corporation).
(§2) Incubation was carried out at 37° C. by using a natural incubator (Compact NIB-10, manufactured by Iwaki Glass Co., Ltd.).
(§3) The enzymes employed herein [α-glucosidase (Baker's yeast), β-glucosidase (Almonds), α-galactosidase (E. coli), β-galactosidase (E. coli) and β-galactosidase (Bovine Liver)] were all purchased from Sigma.
(§4) The substrates (p- or o-nitrophenylglycoside) of these enzymes were all purchased from Sigma.
1) α-Glucosidase (Baker's yeast, EC 3.2.1.20) [described in H. Halvorson and L. Ellias, Biochim. Biophys. Acta, 30, 28-40 (1958)]
Into each well were introduced an aqueous solution of a sample (1 μl), a 0.66 mM solution of p-nitrophenyl α-D-glucopyranoside in a buffer (98 μl) and a (0.4 mg/ml) enzyme solution in the buffer (1 μl) to give a total volume of 100 μl. After incubating at 37° C. for 30 minutes, the reaction was ceased by adding a 1M aqueous solution of sodium carbonate (100 μl). Then the absorbance (A405) of p-nitrophenol liberated by this enzyme reaction was measured. To give the blank absorbance (Ablank), the sample (1 μl) and the substrate (99 μl) were incubated in the same manner and an aqueous solution of sodium carbonate (100 μl) was added followed by the measurement of the absorbance. […] The sample at each concentration, the blank and the control were treated each in two wells at the same time. As the buffer, a 0.1M phosphate buffer solution (pH 6.8, prepared from KH2 PO4 and K2 HPO4) was employed.

Assay [2] deals with β-Glucosidase (Almonds, EC 3.2.1.21). In words: β-Glucosidase enzyme inhibition assay (p-nitrophenyl β-D-glucopyranoside). As to conditions: for IC50: pH 5.0, 37° C., 45 minutes. How it is done: as §1, §2, §3, §4
2) β-Glucosidase (Almonds, EC 3.2.1.21) [described in A. Kobayashi, Agr. Biol. Chem., 26, 203-207 (1962)]
Into each well were introduced an aqueous solution of a sample (1 μl), a 0.33 mM solution of p-nitrophenyl β-D-glucopyranoside in a buffer (98 μl) and a (0.4 mg/ml) enzyme solution in the buffer (1 μl) to give a total volume of 100 μl. After incubating at 37° C. for 45 minutes, the reaction was ceased by adding a 1M aqueous solution of sodium carbonate (100 μl). Then the absorbance (A405) of p-nitrophenol liberated by this enzyme reaction was measured. To give the blank absorbance (Ablank), the sample (1 μl) and the substrate (99 μl) were incubated in the same manner and an aqueous solution of sodium carbonate (100 μl) was added followed by the measurement of the absorbance. […] As the buffer, a 0.1M acetate buffer solution (pH 5.0, prepared from NaOAc and AcOH) was employed. The IC50 was determined in the same manner as employed in the case of α-glucosidase.

Assay [3] relates to α-Galactosidase (E. Coli, EC. 3.2.1.22). In words: α-Galactosidase enzyme inhibition assay (p-nitrophenyl α-D-galactopyranoside). To be noted: pH 6.5, room temperature, 15 minutes. The method, then:
as §1, §3, §4
3) α-Galactosidase (E. Coli, EC. 3.2.1.22) [described in H. Suzuki, S-C. Li and Y-T. Li, J. Biol. Chem., 245, 781-786 (1970)]
Into each well were introduced an aqueous solution of a sample (1 μl), a buffer (74 μl), a 9.9 mM solution of p-nitrophenyl α-D-galactopyranoside in a buffer (20 μl) and a (50 μg/ml) enzyme solution in the buffer (5 μl) to give a total volume of 100 μl. After incubating the resulting mixture at room temperature (20°-30° C.) for 15 minutes, the reaction was ceased by adding a 0.2M borate buffer solution (pH 9.8, prepared from NaOH and H3 BO3, 100 μl). Then the absorbance (A405) of p-nitrophenol liberated by this enzyme reaction was measured. To give the blank absorbance (Ablank), the sample (1 μl), the substrate (20 μl) and the buffer solution (79 μl) were incubated in the same manner and the 0.2M borate buffer solution (100 μl) was added followed by the measurement of the absorbance. To give the control absorbance ([…]), on the other hand, water (1 μl), the substrate (20 μl), the buffer solution (74 μl) and the enzyme solution (5 μl) were incubated in the same manner and the borate buffer solution (100 μl) was added followed by the measurement of the absorbance. A 0.1M phosphate buffer solution (pH 6.5, prepared from KH2 PO4 and K2 HPO4) was employed as the buffer for the enzyme reaction. The IC50 was determined in the same manner as employed in the case of α-glucosidase.

For assay [4], the target named is T2, β-Galactosidase (E. Coli, EC. 3.2.1.23) (Escherichia coli, UniProt P00722).
T2 construct: purchased Sigma; host or cells: E. coli
In words: β-Galactosidase (E. coli) enzyme inhibition assay (o-nitrophenyl β-D-galactopyranoside). How it is done:
as §1, §3, §4
4) β-Galactosidase (E. Coli, EC. 3.2.1.23) [described in G. R. Craven, E. Steers, Jr. and C. B. Anfinsen, J. Biol. Chem., 240, 2468-2477 (1965)]
Into each well were introduced an aqueous solution of a sample (2 μl), a buffer (153 μl), a 20 mM solution of o-nitrophenyl β-D-galactopyranoside in a buffer (25 μl), a 100 mM 2-mercaptoethanol (10 μl) and a (10 μg/ml) enzyme solution in the buffer (10 μl) to give a total volume of 200 μl. After incubating at room temperature (20°-30° C.) for 30 minutes, the absorbance (A405) of o-nitrophenol liberated by this enzyme reaction was measured. To give the blank absorbance (Ablank), the sample (2 μl), the substrate (25 μl), the buffer solution (163 μl) and 2-mercaptoethanol (10 μl) were incubated in the same manner followed by the measurement of the absorbance. To give the control absorbance (Acontrol), on the other hand, water (2 μl), the substrate (25 μl), the buffer solution (153 μl), 2-mercaptoethanol (10 μl) and the enzyme solution (10 μl) were incubated in the same manner followed by the measurement of the absorbance. A 50 mM phosphate buffer solution (pH 7.3, prepared from KH2 PO4 and K2 HPO4, containing 1.3 mM of MgCl2) was employed as the buffer for the enzyme reaction. The IC50 was determined in the same manner as employed in the case of α-glucosidase.

Assay [5] deals with T3, α-glucosidase I (Baker's yeast) (Saccharomyces cerevisiae, UniProt P53008).
T3 construct: made in house; host or cells: Baker's yeast (native enzyme, prepared by the cited method)
T3 sequence (P53008 25-833 limits assumed): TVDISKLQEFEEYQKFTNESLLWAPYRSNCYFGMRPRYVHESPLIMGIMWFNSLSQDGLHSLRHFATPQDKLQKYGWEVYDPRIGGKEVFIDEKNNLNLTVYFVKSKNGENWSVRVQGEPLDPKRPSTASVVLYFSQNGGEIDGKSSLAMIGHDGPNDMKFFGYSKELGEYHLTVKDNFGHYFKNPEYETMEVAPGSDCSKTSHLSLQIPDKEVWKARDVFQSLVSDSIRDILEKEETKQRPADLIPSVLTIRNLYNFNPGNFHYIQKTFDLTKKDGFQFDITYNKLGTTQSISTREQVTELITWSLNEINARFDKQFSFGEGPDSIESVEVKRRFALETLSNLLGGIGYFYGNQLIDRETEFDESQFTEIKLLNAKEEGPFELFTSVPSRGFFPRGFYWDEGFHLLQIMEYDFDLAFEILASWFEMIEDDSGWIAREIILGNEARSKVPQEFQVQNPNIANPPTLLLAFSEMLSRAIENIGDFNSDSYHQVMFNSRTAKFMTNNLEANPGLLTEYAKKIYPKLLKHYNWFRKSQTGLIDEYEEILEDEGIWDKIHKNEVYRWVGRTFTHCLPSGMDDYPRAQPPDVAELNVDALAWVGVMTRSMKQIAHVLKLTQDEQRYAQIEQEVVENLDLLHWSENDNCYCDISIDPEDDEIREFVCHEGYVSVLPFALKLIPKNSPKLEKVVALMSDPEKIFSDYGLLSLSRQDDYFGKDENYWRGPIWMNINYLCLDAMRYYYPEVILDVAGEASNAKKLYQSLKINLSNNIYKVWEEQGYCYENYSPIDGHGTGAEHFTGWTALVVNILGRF
Briefly: Inhibitory activity on α-glucosidase I (Ki). The method, then:
The α-glucosidase I (Baker's yeast) and its substrate (α-D-Glcl→2α-D-Glcl→3α-D-Glc-O(CH2)6 COOCH3) employed herein were prepared in accordance with the method of I. Neverova et al., Anal. Biochem., 222, 190-196 (1994).
The following measurements were performed by the methods described in this literature.
Namely, 25 μl of a buffer solution containing α-glucosidase I was added to a microtube containing the above-mentioned sample and the substrate (α-D-Glcl→2α-D-Glcl→3α-D-Glc-O(CH2)6 COOCH3). After incubating at 37° C. for 1 hour, a 1.25M tris hydrochloride buffer solution (pH 7.6, 25 μl) was added to thereby cease .the reaction. Then the reaction mixture was transferred onto a microplate followed by the addition of 250 μl of a reaction buffer solution [developing solution; 1M tris hydrochloride buffer solution (pH 7.2) containing glucose oxidase (5 units/ml, manufactured by Sigma), horseradish peroxidase (1 purpurogallin units, manufactured by Sigma) and o-dianisidine dihydrochloride (40 μg/ml)]. Then the mixture was incubated at 37° C. for 30 minutes or until an increase in the absorbance attained a plateau. Then the absorbance (A450-650) of the o-dianisidine formed and oxidized by this enzyme reaction was measured. As a blank, the above reaction was repeated but adding neither the above-mentioned sample nor substrate and the absorbance was measured. Also, the above-mentioned reaction buffer solution was added to D-glucose of a known concentration and the resulting mixture was incubated followed by the measurement of the absorbance to thereby examine a relationship between D-glucose concentration and absorbance. Each measurement was effected in two wells at the same time.
Based on the above-mentioned relationship between D-glucose concentration and absorbance, the amount of glucose liberated from the substrate due to the enzyme reaction of α-glucosidase I in the presence of the sample was determined. From the result thus obtained, Km was determined and then Ki was determined from the sample amount and the Km value.

Where [6] appears, read: α-glucosidase I, substrate 0.25-4.0 mM, 37° C., 1 hour, read-out: Ki.

pIC50, pKi: −log10 of the molar value. Read-outs that look alike come from different tables or passages of the source.

T1 sequence (P53341 whole entry): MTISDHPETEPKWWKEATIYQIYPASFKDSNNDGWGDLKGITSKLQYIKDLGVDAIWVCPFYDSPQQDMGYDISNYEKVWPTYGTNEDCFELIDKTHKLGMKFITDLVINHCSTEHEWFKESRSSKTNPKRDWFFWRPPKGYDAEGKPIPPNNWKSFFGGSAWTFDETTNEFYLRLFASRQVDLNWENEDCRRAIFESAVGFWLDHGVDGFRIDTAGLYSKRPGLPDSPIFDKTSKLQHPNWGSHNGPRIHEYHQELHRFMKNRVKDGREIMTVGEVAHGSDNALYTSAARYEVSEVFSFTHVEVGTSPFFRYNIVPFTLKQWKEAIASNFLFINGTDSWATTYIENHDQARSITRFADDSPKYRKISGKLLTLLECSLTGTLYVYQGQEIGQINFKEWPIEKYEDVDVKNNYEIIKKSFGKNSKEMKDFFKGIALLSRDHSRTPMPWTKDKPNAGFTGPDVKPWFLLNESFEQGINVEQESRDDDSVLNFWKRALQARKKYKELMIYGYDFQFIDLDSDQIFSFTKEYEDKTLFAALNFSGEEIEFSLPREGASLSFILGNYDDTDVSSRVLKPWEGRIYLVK
T2 sequence (P00722 2-1024 limits assumed): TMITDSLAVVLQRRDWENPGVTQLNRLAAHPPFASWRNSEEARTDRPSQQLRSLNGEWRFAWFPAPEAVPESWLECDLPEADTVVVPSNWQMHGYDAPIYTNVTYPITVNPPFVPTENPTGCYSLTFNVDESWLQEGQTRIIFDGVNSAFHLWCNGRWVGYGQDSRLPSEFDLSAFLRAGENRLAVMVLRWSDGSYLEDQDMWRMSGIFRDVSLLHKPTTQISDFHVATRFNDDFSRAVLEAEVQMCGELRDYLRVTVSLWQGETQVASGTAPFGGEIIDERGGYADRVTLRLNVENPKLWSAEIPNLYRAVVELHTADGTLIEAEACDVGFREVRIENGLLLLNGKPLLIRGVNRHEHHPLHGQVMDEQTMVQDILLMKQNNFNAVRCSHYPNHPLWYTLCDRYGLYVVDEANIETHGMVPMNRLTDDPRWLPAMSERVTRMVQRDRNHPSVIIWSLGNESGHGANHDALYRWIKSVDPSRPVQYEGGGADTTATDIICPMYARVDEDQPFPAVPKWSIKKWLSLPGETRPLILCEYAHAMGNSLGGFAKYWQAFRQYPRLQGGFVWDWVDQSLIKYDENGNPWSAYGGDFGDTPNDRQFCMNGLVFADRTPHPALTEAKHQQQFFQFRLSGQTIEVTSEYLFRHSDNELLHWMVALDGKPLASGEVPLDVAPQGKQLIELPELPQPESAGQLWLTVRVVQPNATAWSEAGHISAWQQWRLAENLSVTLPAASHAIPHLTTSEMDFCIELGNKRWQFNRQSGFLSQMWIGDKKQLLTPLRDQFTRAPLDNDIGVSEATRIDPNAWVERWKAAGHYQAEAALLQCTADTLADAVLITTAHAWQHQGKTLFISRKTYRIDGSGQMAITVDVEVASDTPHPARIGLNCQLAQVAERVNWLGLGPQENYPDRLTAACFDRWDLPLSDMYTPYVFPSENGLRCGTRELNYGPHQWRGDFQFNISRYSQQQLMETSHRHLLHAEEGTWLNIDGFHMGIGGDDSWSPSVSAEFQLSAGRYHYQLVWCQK

With `OC[C@]12OC(Nc3ccccc3)=N[C@H]1[C@@H](O)[C@H](O)[C@H]2O` [Compound 1-2D, (1R,5S,6R,7S,8R)-1-hydroxymethyl-3-phenylamino-2-oxa-4-azabicyclo[3.3.0]oct-3-ene-6,7,8-triol], the IC50 in assay [1] was 9.99e-07 M; in assay [2] it was above 300 µM; in assay [3] it was above 300 µM. The molecule further showed a pIC50 in assay [4] below 3.52.
Consider `CCCCNC1=N[C@@H]2[C@H](O)[C@@H](O)[C@H](O)[C@]2(CO)O1` [Compound 2-2L, (1S,5R,6S,7R,8S)-1-hydroxymethyl-3-butylamino-2-oxa-4-azabicyclo[3.3.0]oct-3-ene-6,7,8-triol], for which, in assay [1], the “inhibitory activity against α-glucosidase (in words)” value is on record as “remarkably strong inhibitory activities”. Moreover, the IC50 in assay [2] is above 300 µM. Further, the “inhibitory activity against β-glucosidase (in words)” value in assay [2] (summary of Table 1) was “weak inhibitory activities”. For the same molecule, the pKi in assay [5] (setting [6]) was 5.38.
With `OC[C@H]1NC[C@H](O)[C@@H](O)[C@@H]1O` [DNJ, deoxynojirimycin, reference compound], in assay [2], the half-inhibitory concentration (IC50) came to […].
`CCCCN1C[C@H](O)[C@@H](O)[C@H](O)[C@H]1CO` [N-B-DNJ, N-butyldeoxynojirimycin, reference compound] had a pIC50 in assay [1] of 4.10. In addition, the negative logarithm of the Ki (pKi) in assay [5] was 5.44.
Consider `N[C@@H]1[C@H](O)[C@@H](O)[C@H](O)[C@@]1(O)CO` [d, 1L-(1,2,4,5/3)-5-amino-1C-hydroxymethyl-1,2,3,4-cyclopentanetetraol], for which, in assay [1], the pIC50 is 6.40 and the “inhibitory activity against α-glucosidase (in words)” value is “remarkably strong inhibitory activities”. Moreover, in assay [4] (pH 7.3, room temperature, 30 minutes, read-out: IC50 (M) β-Galactosidase (E. coli)), the IC50 was above 0.0003 M. Also, in assay [5] (setting [6]), the pKi was 3.52.
As to `CCCCN(CCCC)[C@@H]1[C@H](O)[C@@H](O)[C@H](O)[C@@]1(O)CO` [d-1, 1L-(1,2,4,5/3)-5-dibutylamino-1-hydroxymethyl-1,2,3,4-cyclopentanetetraol], in assay [1], the “inhibitory activity against α-glucosidase (in words)” value is “remarkably strong inhibitory activities” and the IC50 was 5e-07 M. Moreover, the IC50 in assay [2] came to 130 µM.
Consider `CCCCN[C@@H]1[C@H](O)[C@@H](O)[C@H](O)[C@@]1(O)CO` [d-2, 1L-(1,2,4,5/3)-5-butylamino-1-hydroxymethyl-1,2,3,4-cyclopentanetetraol], for which, in assay [1], the “inhibitory activity against α-glucosidase (in words)” value was “remarkably strong inhibitory activities” and the IC50 worked out at 1.7e-08 M. The same molecule returned an IC50 in assay [2] of 3 µM.
Take trehasolamine [reference compound]: the IC50 in assay [1] was determined as 0.0005 M; in assay [2], 9.9 µM. In addition, the pKi in assay [5] (setting [6]) was 2.82.
